Experimental data reported in paper PMC3087488 (Journal of Oncology, 2011).

Test: adverse events in patients (CTCAE version 3.0)
Format: in vivo, human
Details: for Any motesanib-related AE, Grade 3 / Any motesanib-related AE, Grade 4 / Any motesanib-related AE, Grade 5 / Motesanib-related AE: Anorexia / Motesanib-related AE: Constipation / Motesanib-related AE: Deep vein thrombosis / Motesanib-related AE: Dehydration / Motesanib-related AE: Dermatitis acneiform / Motesanib-related AE: Diarrhea / Motesanib-related AE: Erythema / Motesanib-related AE: Fatigue / Motesanib-related AE: Hypertension / Motesanib-related AE: Nausea / Motesanib-related AE: Pulmonary embolism / Motesanib-related AE: Rash / Motesanib-related AE: Vomiting / Motesanib-related Arterial thromboembolic events (all grades) / Motesanib-related Arterial thrombosis, Grade 3 / Motesanib-related Arterial thrombosis, Grade 4 / Motesanib-related Cerebrovascular accident, Grade 2 / Motesanib-related Deep vein thrombosis, Grade 2 / Motesanib-related Deep vein thrombosis, Grade 3 / Motesanib-related Gallbladder disorder, Grade 1 / Motesanib-related Hemorrhagic events, Grade 1 / Motesanib-related Jugular vein thrombosis, Grade 2 / Motesanib-related Neutropenia, Grade 3 / Motesanib-related Pulmonary embolism, Grade 4 / Motesanib-related Pulmonary embolism, Grade 5 / Motesanib-related Venous thromboembolic events (all grades) / Patients with any motesanib-related AE: gemcitabine/cisplatin
Experimental: Adverse events were recorded throughout the study and graded (including DLTs) according to the Common Terminology Criteria for Adverse Events, version 3.0. Samples for assessment of hematology, blood chemistry, urinalysis, and thyroid function were collected on day 1 of each cycle.

[1] = 33 patients who received motesanib, all cohorts
[2] = listed after the 125-mg QD cohort
[3] = motesanib 50 mg QD (n = 8) + panitumumab
[4] = motesanib 75 mg BID (n = 2) + panitumumab
[5] = motesanib 75 mg QD (n = 6) + panitumumab

CC1(C)CNc2cc(NC(=O)c3cccnc3NCc3ccncc3)ccc21 [motesanib]
grade 3 cholelithiasis (100 mg QD cohort): One | grade 1 jaundice (125 mg QD cohort): one | motesanib-related anorexia [1]: 8 patients | motesanib-related diarrhea [1]: 10 patients | motesanib-related fatigue [1]: 14 patients | motesanib-related hypertension [1]: 15 patients | motesanib-related nausea [1]: 15 patients | motesanib-related pulmonary embolism [1]: 8 patients | motesanib-related vomiting [1]: 8 patients | patients with serious motesanib-related adverse events (125-mg QD cohort): 8 patients | hypothyroidism (all cohorts): did not occur | patients who discontinued motesanib because of adverse events (all cohorts): 13 patients | patients with motesanib-related venous thromboembolic events (all cohorts, 10 patients): 24% | patients with grade 4 or 5 pulmonary embolism (all cohorts, eight patients (one grade 5)): 20% | patients with deep vein thrombosis (grade 2 or 3) (all cohorts, four patients): 10% | patients with serious adverse events considered related to motesanib (all cohorts, fourteen patients): 34% | patients with grade 2 jugular vein thrombosis (all cohorts, one patient): 2% | patients with motesanib-related serious adverse event with a worst grade of 4 (all cohorts, six patients): 15% | patients with motesanib-related arterial thromboembolic events (all cohorts, three patients): 7% | cholecystitis (any tested dose level): did not occur | serious motesanib-related arterial thrombosis [2]: 1 patients | serious motesanib-related asthenia [2]: 1 patients | serious motesanib-related atrial fibrillation [2]: 1 patients | serious motesanib-related confusional state [2]: 1 patients | serious motesanib-related deep vein thrombosis [2]: 2 patients | serious motesanib-related dehydration [2]: 2 patients | serious motesanib-related diarrhea [2]: 2 patients | serious motesanib-related headache [2]: 1 patients | serious motesanib-related hyponatremia [2]: 1 patients | serious motesanib-related pulmonary embolism [2]: 3 patients | serious motesanib-related sudden death [2]: 1 patients | Any motesanib-related AE, Grade 3 [3]: 2 (25) n (%) | Any motesanib-related AE, Grade 4 [3]: 0 (0) n (%) | Any motesanib-related AE, Grade 5 [3]: 1 (13) n (%) | Motesanib-related AE: Anorexia [3]: 2 (25) n (%) | Motesanib-related AE: Constipation [3]: 0 (0) n (%) | Motesanib-related AE: Deep vein thrombosis [3]: 1 (13) n (%) | Motesanib-related AE: Dehydration [3]: 0 (0) n (%) | Motesanib-related AE: Dermatitis acneiform [3]: 1 (13) n (%) | Motesanib-related AE: Diarrhea [3]: 1 (13) n (%) | Motesanib-related AE: Erythema [3]: 1 (13) n (%) | Motesanib-related AE: Fatigue [3]: 4 (50) n (%) | Motesanib-related AE: Hypertension [3]: 3 (38) n (%) | Motesanib-related AE: Nausea [3]: 4 (50) n (%) | Motesanib-related AE: Pulmonary embolism [3]: 1 (13) n (%) | Motesanib-related AE: Rash [3]: 0 (0) n (%) | Motesanib-related AE: Vomiting [3]: 2 (25) n (%) | Motesanib-related Arterial thromboembolic events (all grades) [3]: 1 (13) n (%) | Motesanib-related Arterial thrombosis, Grade 3 [3]: 0 (0) n (%) | Motesanib-related Arterial thrombosis, Grade 4 [3]: 0 (0) n (%) | Motesanib-related Cerebrovascular accident, Grade 2 [3]: 1 (13) n (%) | Motesanib-related Deep vein thrombosis, Grade 2 [3]: 1 (13) n (%) | Motesanib-related Deep vein thrombosis, Grade 3 [3]: 0 (0) n (%) | Motesanib-related Gallbladder disorder, Grade 1 [3]: 0 (0) n (%) | Motesanib-related Hemorrhagic events, Grade 1 [3]: 1 (13) n (%) | Motesanib-related Jugular vein thrombosis, Grade 2 [3]: 0 (0) n (%) | Motesanib-related Neutropenia, Grade 3 [3]: 1 (13) n (%) | Motesanib-related Pulmonary embolism, Grade 4 [3]: 0 (0) n (%) | Motesanib-related Pulmonary embolism, Grade 5 [3]: 1 (13) n (%) | Motesanib-related Venous thromboembolic events (all grades) [3]: 2 (25) n (%) | Patients with any motesanib-related AE [3]: 6 (75) n (%) | Any motesanib-related AE, Grade 3 [4]: 1 (50) n (%) | Any motesanib-related AE, Grade 4 [4]: 1 (50) n (%) | Any motesanib-related AE, Grade 5 [4]: 0 (0) n (%) | Motesanib-related AE: Anorexia [4]: 0 (0) n (%) | Motesanib-related AE: Constipation [4]: 0 (0) n (%) | Motesanib-related AE: Deep vein thrombosis [4]: 0 (0) n (%) | Motesanib-related AE: Dehydration [4]: 0 (0) n (%) | Motesanib-related AE: Dermatitis acneiform [4]: 0 (0) n (%) | Motesanib-related AE: Diarrhea [4]: 1 (50) n (%) | Motesanib-related AE: Erythema [4]: 0 (0) n (%) | Motesanib-related AE: Fatigue [4]: 0 (0) n (%) | Motesanib-related AE: Hypertension [4]: 1 (50) n (%) | Motesanib-related AE: Nausea [4]: 0 (0) n (%) | Motesanib-related AE: Pulmonary embolism [4]: 0 (0) n (%) | Motesanib-related AE: Rash [4]: 2 (100) n (%) | Motesanib-related AE: Vomiting [4]: 0 (0) n (%) | Motesanib-related Arterial thromboembolic events (all grades) [4]: 1 (50) n (%) | Motesanib-related Arterial thrombosis, Grade 3 [4]: 0 (0) n (%) | Motesanib-related Arterial thrombosis, Grade 4 [4]: 1 (50) n (%) | Motesanib-related Cerebrovascular accident, Grade 2 [4]: 0 (0) n (%) | Motesanib-related Deep vein thrombosis, Grade 2 [4]: 0 (0) n (%) | Motesanib-related Deep vein thrombosis, Grade 3 [4]: 0 (0) n (%) | Motesanib-related Gallbladder disorder, Grade 1 [4]: 0 (0) n (%) | Motesanib-related Hemorrhagic events, Grade 1 [4]: 0 (0) n (%) | Motesanib-related Jugular vein thrombosis, Grade 2 [4]: 0 (0) n (%) | Motesanib-related Neutropenia, Grade 3 [4]: 0 (0) n (%) | Motesanib-related Pulmonary embolism, Grade 4 [4]: 0 (0) n (%) | Motesanib-related Pulmonary embolism, Grade 5 [4]: 0 (0) n (%) | Motesanib-related Venous thromboembolic events (all grades) [4]: 0 (0) n (%) | Patients with any motesanib-related AE [4]: 2 (100) n (%) | Any motesanib-related AE, Grade 3 [5]: 2 (33) n (%) | Any motesanib-related AE, Grade 4 [5]: 2 (33) n (%)
